Reference: patent US5843889A, “Glycopeptide antibiotic derivatives” (Eli Lilly and Company, priority 1997, dated 1998)
In brackets after ≈: the same amount, converted by molar mass.

Tests used:
Type in all cases: cell-based
Pediococcus pentosaceus = experiment: MIC, agar dilution on brain-heart infusion agar; conditions: Pediococcus pentosaceus (mean of 2)
Leuconostoc lactis = experiment: MIC, agar dilution on brain-heart infusion agar; conditions: Leuconostoc lactis (mean of 2)
Lactobacillus confusus = experiment: MIC, agar dilution on brain-heart infusion agar
[1] = test system: Leuconostoc mesenteroides; experiment: MIC, agar dilution on brain-heart infusion agar; conditions: Leuconostoc mesenteroides (mean of 4)
Leuconostoc citreum = experiment: MIC, agar dilution on brain-heart infusion agar
[2] = test system: Leuconostoc pseudomesenteroides; experiment: MIC, agar dilution on brain-heart infusion agar
[3] = test system: Entercoccus gallinarum 245; experiment: MIC, standard broth micro-dilution assay
Protocol: (§1) The formula I compounds have in vitro and in vivo activity against Gram-positive pathogenic bacteria. The MIC's were determined using a standard broth micro-dilution assay.

[4] = test system: Entercoccus faecalis 2041; experiment: MIC, standard broth micro-dilution assay
Protocol: as §1

Entercoccus faecalis 276 = experiment: MIC, standard broth micro-dilution assay
Protocol: as §1

Pedicoccus acidilacti = experiment: MIC, agar dilution on brain-heart infusion agar; conditions: Pedioccccus acidilacti (mean of 10)

Row | Compound | MIC (Pediococcus pentosaceus) [µg/mL] | MIC (Leuconostoc lactis) [µg/mL] | MIC (Lactobacillus confusus) [µg/mL] | MIC [1] [µg/mL] | MIC (Leuconostoc citreum) [µg/mL] | MIC [2] [µg/mL] | MIC [3] [µg/mL] | MIC [4] [µg/mL] | MIC (Entercoccus faecalis 276) [µg/mL] | MIC (Pedicoccus acidilacti) [µg/mL]
1 | CN[C@H](CC(C)C)C(=O)N[C@H]1C(=O)N[C@@H](CC(N)=O)C(=O)N[C@H]2C(=O)N[C@H]3C(=O)N[C@H](C(=O)N[C@H](C(=O)O)c4cc(O)cc(O)c4-c4cc3ccc4O)[C@H](O)c3ccc(c(Cl)c3)Oc3cc2cc(c3O[C@@H]2O[C@H](CO)[C@@H](O)[C@H](O)[C@H]2O[C@H]2C[C@](C)(N)[C@H](O)[C@H](C)O2)Oc2ccc(cc2Cl)[C@H]1O [vancomycin, reference compound] | 1024 (≈ 707 µM) | 1024 (≈ 707 µM) | 1024 (≈ 707 µM) | 1024 (≈ 707 µM) | > 1024 | > 1024 | 4 (≈ 2.76 µM) | 2 (≈ 1.38 µM) | 1 (≈ 0.69 µM) | 891 (≈ 615 µM)
2 | CNC(CC(C)C)C(=O)NC1C(=O)NC(CC(N)=O)C(=O)NC2C(=O)NC3C(=O)NC(C(=O)NC(C(=O)O)c4cc(O)cc(O)c4-c4cc3ccc4O)C(OC3CC(C)(N)C(O)C(C)O3)c3ccc(c(Cl)c3)Oc3cc2cc(c3OC2OC(CO)C(O)C(O)C2OC2CC(C)(NCc3ccc(-c4ccc(-c5ccccc5)cc4)cc3)C(O)C(C)O2)Oc2ccc(cc2Cl)C1O (stereo not drawn) [Compound 36, 4-[4-biphenyl]benzyl] | 16 (≈ 8.72 µM) | 16 (≈ 8.72 µM) | 32 (≈ 17.4 µM) | 16 (≈ 8.72 µM) | 32 (≈ 17.4 µM) | 32 (≈ 17.4 µM) | 0.25 (≈ 0.136 µM) | 1 (≈ 0.545 µM) | 2 (≈ 1.09 µM) | 9.2 (≈ 5.01 µM)

Now from value to compound, other results behind:

Row | MIC (Pediococcus pentosaceus) [µg/mL] | MIC (Leuconostoc lactis) [µg/mL] | MIC (Lactobacillus confusus) [µg/mL] | MIC [1] [µg/mL] | MIC (Leuconostoc citreum) [µg/mL] | Compound | MIC [2] [µg/mL] | MIC [3] [µg/mL] | MIC [4] [µg/mL] | MIC (Entercoccus faecalis 276) [µg/mL] | MIC (Pedicoccus acidilacti) [µg/mL]
3 | 16 (≈ 9.04 µM) | 16 (≈ 9.04 µM) | 16 (≈ 9.04 µM) | 16 (≈ 9.04 µM) | 64 (≈ 36.1 µM) | CNC(CC(C)C)C(=O)NC1C(=O)NC(CC(N)=O)C(=O)NC2C(=O)NC3C(=O)NC(C(=O)NC(C(=O)O)c4cc(O)cc(O)c4-c4cc3ccc4O)C(OC3CC(C)(N)C(O)C(C)O3)c3ccc(c(Cl)c3)Oc3cc2cc(c3OC2OC(CO)C(O)C(O)C2OC2CC(C)(NCc3ccc4c(c3)Cc3ccccc3-4)C(O)C(C)O2)Oc2ccc(cc2Cl)C1O (stereo not drawn) [Compound 32, 2-fluorenylmethyl] | – | – | – | – | –
4 | 8.0 (≈ 4.47 µM) | 8.0 (≈ 4.47 µM) | 16 (≈ 8.95 µM) | 8 (≈ 4.47 µM) | 64 (≈ 35.8 µM) | CNC(CC(C)C)C(=O)NC1C(=O)NC(CC(N)=O)C(=O)NC2C(=O)NC3C(=O)NC(C(=O)NC(C(=O)O)c4cc(O)cc(O)c4-c4cc3ccc4O)C(OC3CC(C)(N)C(O)C(C)O3)c3ccc(c(Cl)c3)Oc3cc2cc(c3OC2OC(CO)C(O)C(O)C2OC2CC(C)(NCc3ccc(OCc4ccccc4)cc3)C(O)C(C)O2)Oc2ccc(cc2Cl)C1O (stereo not drawn) [Compound 5, 4-benzyloxybenzyl] | 16 (≈ 8.95 µM) | ≤ 0.06 | ≤ 0.06 | ≤ 0.06 | 2.8 (≈ 1.57 µM)
5 | 8.0 (≈ 4.48 µM) | 5.7 (≈ 3.19 µM) | 8 (≈ 4.48 µM) | 6.7 (≈ 3.75 µM) | 32 (≈ 17.9 µM) | CNC(CC(C)C)C(=O)NC1C(=O)NC(CC(N)=O)C(=O)NC2C(=O)NC3C(=O)NC(C(=O)NC(C(=O)O)c4cc(O)cc(O)c4-c4cc3ccc4O)C(OC3CC(C)(N)C(O)C(C)O3)c3ccc(c(Cl)c3)Oc3cc2cc(c3OC2OC(CO)C(O)C(O)C2OC2CC(C)(NCc3ccc(C=Cc4ccccc4)cc3)C(O)C(C)O2)Oc2ccc(cc2Cl)C1O (stereo not drawn) [Compound 29, 4-stilbenzyl] | 16 (≈ 8.97 µM) | 0.25 (≈ 0.14 µM) | 0.25 (≈ 0.14 µM) | 0.25 (≈ 0.14 µM) | 4.0 (≈ 2.24 µM)
